# Data published in US8114880B2, “Piperidine or piperazine substituted tetrahydro-naphthalene-1-carboxylic acid MTP inhibiting compounds” (Janssen Pharmaceutica N.V., priority 2006, dated 2012).
# Assays:
# HepG2 cells = experiment: Quantification of the secretion of ApoB; assay type: cell-based; settings: Homo sapiens, HepG2, 24 h, 24 hours of incubation, pIC50 = -log IC50
# In short: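 At 70% confluency, HepG2 cells received compound (0.4% DMSO final) for 24 h. Secreted apoB in cleared medium was immunoprecipitated with sheep anti-apoB then rabbit anti-sheep antibody (24 h each at 8° C.), and pellet radioactivity was counted by scintillation. IC50 values were expressed as pIC50.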
# MTP = MTP (Homo sapiens, UniProt P55157); experiment: MTP assay (triglyceride transfer from donor to acceptor vesicles); assay type: biochemical; settings: MTP activity, percent triglyceride transfer from donor to acceptor vesicles, 37° C.
# In short: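 Radiolabelled triglyceride transfer from donor vesicles (phosphatidylcholine, 7.5 mol % cardiolipin, 0.25 mol % glycerol tri[1-^14C]-oleate) to phosphatidylcholine acceptor vesicles with BSA, pH 7.5 Tris buffer; compounds in DMSO (0.13% final), 5 min preincubation at 37° C before MTP addition. Donor vesicles removed on DEAE-52; acceptor-supernatant ^14C counts give percent transfer.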
# MTP, sequence (P55157 19-894, species assumed): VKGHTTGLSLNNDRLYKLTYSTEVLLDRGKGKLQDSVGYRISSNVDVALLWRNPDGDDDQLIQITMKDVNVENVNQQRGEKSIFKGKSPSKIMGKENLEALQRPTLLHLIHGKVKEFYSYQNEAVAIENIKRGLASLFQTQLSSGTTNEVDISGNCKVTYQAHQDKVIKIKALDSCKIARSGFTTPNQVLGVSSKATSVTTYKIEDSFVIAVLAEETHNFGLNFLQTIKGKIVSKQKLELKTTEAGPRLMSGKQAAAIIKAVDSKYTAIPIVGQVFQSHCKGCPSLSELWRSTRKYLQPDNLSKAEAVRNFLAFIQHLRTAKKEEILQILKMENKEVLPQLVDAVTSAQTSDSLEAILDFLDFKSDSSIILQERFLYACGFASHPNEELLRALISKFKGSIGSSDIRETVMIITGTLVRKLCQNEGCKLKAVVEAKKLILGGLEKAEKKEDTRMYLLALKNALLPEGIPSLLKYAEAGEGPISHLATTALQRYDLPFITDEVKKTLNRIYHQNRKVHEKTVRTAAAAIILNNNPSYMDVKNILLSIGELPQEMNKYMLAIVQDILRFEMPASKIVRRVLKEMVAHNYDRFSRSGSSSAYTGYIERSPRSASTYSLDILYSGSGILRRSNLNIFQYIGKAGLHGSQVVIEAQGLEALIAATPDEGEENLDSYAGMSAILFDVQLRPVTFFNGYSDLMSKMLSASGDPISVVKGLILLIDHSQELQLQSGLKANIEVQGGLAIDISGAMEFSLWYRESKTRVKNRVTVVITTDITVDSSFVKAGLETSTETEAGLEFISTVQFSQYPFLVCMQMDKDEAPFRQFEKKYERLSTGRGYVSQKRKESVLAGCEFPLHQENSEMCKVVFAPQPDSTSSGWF
# MTP, sequence (P07237 18-508 partner, species assumed): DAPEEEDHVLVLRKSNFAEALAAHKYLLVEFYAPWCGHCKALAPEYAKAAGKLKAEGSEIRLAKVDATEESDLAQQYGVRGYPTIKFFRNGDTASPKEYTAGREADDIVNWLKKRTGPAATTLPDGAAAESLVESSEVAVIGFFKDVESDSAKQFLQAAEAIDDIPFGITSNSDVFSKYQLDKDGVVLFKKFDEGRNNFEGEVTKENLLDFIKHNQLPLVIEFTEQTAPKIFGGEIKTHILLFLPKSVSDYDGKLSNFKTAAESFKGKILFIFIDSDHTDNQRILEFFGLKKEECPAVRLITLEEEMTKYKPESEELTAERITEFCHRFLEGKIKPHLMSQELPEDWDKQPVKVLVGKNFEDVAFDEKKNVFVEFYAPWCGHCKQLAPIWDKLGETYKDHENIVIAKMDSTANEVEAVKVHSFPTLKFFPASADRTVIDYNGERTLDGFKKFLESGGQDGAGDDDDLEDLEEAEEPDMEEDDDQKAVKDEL
smiles,measurement,setting,value
CCOC(=O)NCCCC[C@H](NC(=O)[C@@]1(c2ccccc2)CC[C@H](C(=O)N2CCC(NC(=O)c3ccccc3OC)CC2)c2ccccc21)C(=O)OCC [Co. No. 211],IC50,HepG2 cells,95.7 nM
same,IC50,MTP,6.1 nM
CCOC(=O)NCCCC[C@H](NC(=O)[C@@]1(c2ccccc2)CC[C@H](C(=O)N2CCC(NC(=O)c3ccccc3OC)CC2)c2ccccc21)C(=O)OC(C)C [Co. No. 212],IC50,HepG2 cells,22.3 nM
same,IC50,MTP,4.34 nM
COc1ccccc1C(=O)NC1CCN(C(=O)[C@H]2CC[C@@](C(=O)N[C@@H](CCCCNC(=O)OC(C)C)C(=O)OC(C)C)(c3ccccc3)c3ccccc32)CC1 [Co. No. 213],IC50,HepG2 cells,5.9 nM
same,IC50,MTP,3.1 nM
COC(=O)[C@H](CCCCNC(=O)[C@@]1(c2ccccc2)CC[C@H](C(=O)N2CCC(NC(=O)c3ccccc3OC)CC2)c2ccccc21)NC(C)=O [Co. No. 214],IC50,HepG2 cells,> 1000 nM
same,IC50,MTP,26.8 nM
COC(=O)[C@@H](CCCCNC(=O)OC(C)(C)C)NC(=O)[C@@]1(c2ccccc2)CC[C@H](C(=O)N2CCC(NC(=O)c3ccccc3OC)CC2)c2ccccc21 [Co. No. 215],IC50,HepG2 cells,18.4 nM
same,IC50,MTP,2.92 nM
CCOC(=O)[C@@H](CCCCNC(=O)OC(C)(C)C)NC(=O)[C@@]1(c2ccccc2)CC[C@H](C(=O)N2CCC(NC(=O)c3ccccc3OC)CC2)c2ccccc21 [Co. No. 216],IC50,HepG2 cells,31.1 nM
same,IC50,MTP,6.7 nM
CCOC(=O)NCCCC[C@@H](NC(=O)[C@@]1(c2ccccc2)CC[C@H](C(=O)N2CCC(NC(=O)c3ccccc3OC)CC2)c2ccccc21)C(=O)OCC [Co. No. 217],IC50,HepG2 cells,256 nM
same,IC50,MTP,8.22 nM
CCOC(=O)NCCCC[C@@H](NC(=O)[C@@]1(c2ccccc2)CC[C@H](C(=O)N2CCC(NC(=O)c3ccccc3OC)CC2)c2ccccc21)C(=O)OC(C)C [Co. No. 218],IC50,HepG2 cells,65 nM
same,IC50,MTP,2.41 nM
COC(=O)[C@@H](CCCCNC(=O)OC(C)C)NC(=O)[C@@]1(c2ccccc2)CC[C@H](C(=O)N2CCC(NC(=O)c3ccccc3OC)CC2)c2ccccc21 [Co. No. 219],IC50,HepG2 cells,300 nM
same,IC50,MTP,4.24 nM
CCOC(=O)[C@@H](CCCCNC(=O)OC(C)C)NC(=O)[C@@]1(c2ccccc2)CC[C@H](C(=O)N2CCC(NC(=O)c3ccccc3OC)CC2)c2ccccc21 [Co. No. 220],IC50,HepG2 cells,21.1 nM
same,IC50,MTP,1.86 nM
COc1ccccc1C(=O)NC1CCN(C(=O)[C@H]2CC[C@@](C(=O)N[C@H](CCCCNC(=O)OC(C)C)C(=O)OC(C)C)(c3ccccc3)c3ccccc32)CC1 [Co. No. 221],IC50,HepG2 cells,135 nM
same,IC50,MTP,1.78 nM
CC(C)OC(=O)CCNC(=O)[C@@]1(c2ccccc2)CC[C@H](C(=O)N2CCC(NC(=O)c3cccn(C)c3=O)CC2)c2ccccc21 [Co. No. 222],IC50,HepG2 cells,> 1000 nM
same,IC50,MTP,45.8 nM
CCOC(=O)CCCNC(=O)[C@@]1(c2ccccc2)CC[C@H](C(=O)N2CCC(NC(=O)c3cccn(C)c3=O)CC2)c2ccccc21 [Co. No. 225],IC50,HepG2 cells,> 1000 nM
same,IC50,MTP,> 100 nM
Cn1cccc(C(=O)NC2CCN(C(=O)[C@H]3CC[C@@](C(=O)NCCCC(=O)OC(C)(C)C)(c4ccccc4)c4ccccc43)CC2)c1=O [Co. No. 226],IC50,HepG2 cells,> 1000 nM
same,IC50,MTP,111 nM
CC(C)OC(=O)CCCCCNC(=O)[C@@]1(c2ccccc2)CC[C@H](C(=O)N2CCC(NC(=O)c3cccn(C)c3=O)CC2)c2ccccc21 [Co. No. 229],IC50,HepG2 cells,> 1000 nM
same,IC50,MTP,7.57 nM
CCOC(=O)[C@H](CCCCNC(=O)OC(C)(C)C)NC(=O)[C@@]1(c2ccccc2)CC[C@H](C(=O)N2CCC(NC(=O)c3cccn(C)c3=O)CC2)c2ccccc21 [Co. No. 231],IC50,HepG2 cells,> 1000 nM
same,IC50,MTP,> 100 nM
CCOC(=O)NCCCC[C@H](NC(=O)[C@@]1(c2ccccc2)CC[C@H](C(=O)N2CCC(NC(=O)c3cccn(C)c3=O)CC2)c2ccccc21)C(=O)OC(C)C [Co. No. 233],IC50,HepG2 cells,> 1000 nM
same,IC50,MTP,117 nM
CC(C)OC(=O)NCCCC[C@H](NC(=O)[C@@]1(c2ccccc2)CC[C@H](C(=O)N2CCC(NC(=O)c3cccn(C)c3=O)CC2)c2ccccc21)C(=O)OC(C)C [Co. No. 235],IC50,HepG2 cells,> 1000 nM
same,IC50,MTP,109 nM
